Data: patent publication US7316814B2, “Cosmetic composition comprising a silicone-containing compound and a fatty acid ester” (L'Oreal, priority 1995, dated 2008)

Assay: Maximum mass content of ester added to a gum-in-silicone-oil solution without precipitation of the gum
Type: physicochemical
Details: 25° C.; 13% gum solution in polydimethylsiloxane (Q2-1403)
Description: The maximum mass content of ester which may be added, at 25° C., to a solution of gum in a silicone oil without observing precipitation of the gum was measured.

Row | Maximum mass content of ester which may be added without observing precipitation of the gum | Compound
1 | 72% | CCCCCCCCC(CCCCCC)COC(=O)CCCCCC(C)C (stereo not shown) [2-hexyldecyl isononanoate]
2 | 60% | CC(C)CCCCCCCCCCCCCCCOC(=O)CCCCCC(C)C [Isostearyl isononanoate]
3 | 68% | CC(C)CCCCCCCCCCCCCCCOC(=O)C(C)(C)C [Isostearyl neopentanoate]
4 | to at least 1000% | Octyldodecyl neopentanoate
